Laboratory results taken from PubChem BioAssay AID1189 (EPA DSSTox, 2008).
The source made the active and inactive calls.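 Rule for the calls: active = a tumor-causing dose value with its tumor site reported for any sex and species group of a rodent or other animal cancer study; inconclusive = only studies judged inadequate by the national testing program; inactive = tested in at least one study, none positive.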

Assay: DSSTox (CPDBAS) Carcinogenic Potency Database Summary SingleCellCall Results
Details: animal chronic carcinogenicity bioassays, CPDB summary call
Method in brief: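 Literature-derived summary: each substance receives an overall carcinogenic/non-carcinogenic category drawn from long-term bioassays in rats, mice, hamsters, dogs or primates, using the most positive sex-species experiment and minimal evidence criteria.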

| Structure (SMILES) | outcome |
| --- | --- |
| CCc1cccc2c3c([nH]c12)C(CC)(CC(=O)O)OCC3 (centres undefined) | inactive |
| C[C@@H]1CC2(O[C@@H]2C)C(=O)O[C@@H]2CCN(C)C/C=C(/COC(=O)[C@]1(C)O)C2=O (some centres undefined) | active; inactive |
| C=C(Cl)Cl | active |
| CC(=O)NNC(C)=O | inactive |
| NCC1(CC(=O)O)CCCCC1 | active |
| C[C@]12CCC(=O)C=C1CC[C@@H]1[C@@H]2[C@@H](O)C[C@@]2(C)[C@H]1CC[C@]2(O)C(=O)CO | inactive |
| CC[N+](=O)[O-] | inactive |
| CCCCCCCCCCCN(C)N=O | active; inactive |
| Cc1ccc(N)cc1Cl | inactive; active |
| COc1cc(/C=C/C(=O)O[C@H]2CC[C@]34C[C@]35CC[C@]3(C)[C@@H]([C@H](C)CCC=C(C)C)CC[C@@]3(C)[C@@H]5CC[C@H]4C2(C)C)ccc1O | inactive |
| CCN(CC)N=O | active; inactive |
| Cc1ccc2ccccc2c1 | inactive; active |
| CS(=O)(=O)OCCCNCCCOS(C)(=O)=O | inactive; active |
| c1ccc2c(c1)Oc1ccccc1O2 | inactive; active |
| CC(O)c1ccccc1 (centres undefined) | active; inactive |
| COc1cc2c(c3oc4cccc(O)c4c(=O)c13)C1C=COC1O2 (centres undefined) | active; inactive |
| C[C@@H]1Cc2c(Cl)cc(C(=O)N[C@@H](Cc3ccccc3)C(=O)O)c(O)c2C(=O)O1 | active |
| NC(N)=NC(N)=NCCc1ccccc1 | inactive |
| O=c1ccc2ccccc2o1 | active; inactive |
| Cc1ccc2c(c1N)C(=O)c1ccccc1C2=O | active |
| Clc1cccc(-c2cccc(Cl)c2)c1 | active |
| C1OC1C1CO1 (centres undefined) | inactive |
| Cc1ccc(C)c(N)c1 | active |
| Nc1ccccc1C(=O)OC/C=C/c1ccccc1 | active |
| Clc1cccc(-c2cc(Cl)cc(Cl)c2)c1 | active |
| COc1cc(-c2ccc(N=C=O)c(OC)c2)ccc1N=C=O | active |

| Structure (SMILES) | outcome |
| --- | --- |
| CC(=O)Nc1ccc(O)cc1 | active; inactive |
| COc1ccc(CCN2CCC(Nc3nc4ccccc4n3Cc3ccc(F)cc3)CC2)cc1 | inactive |
| Brc1cc(Br)c(-c2cc(Br)c(Br)cc2Br)cc1Br | active |
| CN1C(=O)C(O)N=C(c2ccccc2)c2cc(Cl)ccc21 (centres undefined) | inactive |
| Nc1c(F)c(N)c(F)c(F)c1F | active; inactive |
| O=C([O-])C(=O)O.O=C([O-])C(=O)O.[K+].[K+].[O]=[Ti] | inactive; active |
| C1COCCO1 | active; inactive |
| CCCNN | active |
| CC(=O)Nc1ccc(-c2ccccc2)cc1 | active |
| CNC(=O)Oc1cc(C)c(N(C)C)c(C)c1 | inactive |
| O=C(Nc1nc(-c2ccc([N+](=O)[O-])o2)cs1)C(F)(F)F | active |
| CCCCCl | inactive |
| CC/C=C(/CC)[N+](=O)[O-] | active |
| NC(=O)CCCCC(N)=O | inactive; active |
| CC1=C[C@H]2[C@@]3(O)[C@H](C)[C@@H](O)[C@]4(O)[C@H]([C@@H]3C=C(CO)C[C@]2(O)C1=O)C4(C)C | active |
| C=CC(=O)O | inactive; active |
| CCN(Cc1cccc(S(=O)(=O)O)c1)c1ccc(C(=C2C=CC(=[N+](CC)Cc3cccc(S(=O)(=O)[O-])c3)C=C2)c2ccc(S(=O)(=O)O)cc2)cc1 | active |
| O=C(c1ccccc1)C(O)c1ccccc1 (centres undefined) | inactive; active |
| CC(C)CON=O | active |
| CCC1(c2ccccc2)C(=O)NCNC1=O | active |
| O=C1C2(Cl)C3(Cl)C4(Cl)C(Cl)(Cl)C5(Cl)C3(Cl)C1(Cl)C5(Cl)C24Cl (centres undefined) | active; inactive |
| Cc1ccc2cc3c(ccc4ccccc43)c3c2c1CC3 | active; inactive |
| O=c1oc2c(O)c(O)cc3c(=O)oc4c(O)c(O)cc1c4c23 | inactive |
| COC(=O)C1=CCCN(C)C1 | active |
| O=C(O)c1cc(Oc2ccc(C(F)(F)F)cc2Cl)ccc1[N+](=O)[O-] | active |
| NC1=NC(=O)C(c2ccccc2)O1 (centres undefined) | inactive; active |

| Structure (SMILES) | outcome |
| --- | --- |
| C[C@@H]1CCCCN1N=O | active |
| O=NN1CCCCCCCCCCCC1 | active |
| C=CC(O)c1ccc2c(c1)OCO2 (centres undefined) | active |
| COc1cc(-c2ccc(N=Nc3c(S(=O)(=O)O)cc4cc(S(=O)(=O)O)cc(N)c4c3O)c(OC)c2)ccc1N=Nc1c(S(=O)(=O)O)cc2cc(S(=O)(=O)O)cc(N)c2c1O | active |
| [N-]=[N+]=O | inactive |
| Cc1c(-c2cnccn2)ssc1=S | inactive; active |
| N[C@@H](Cc1ccc(N(CCCl)CCCl)cc1)C(=O)O | active |
| C=C/C=N/O | inactive |
| CCCCCCCCCCCCC(=O)COC1=C(O)C(=O)O[C@@H]1[C@@H](O)CO | inactive |
| NNC(N)=S | inactive |
| O=NN1CCC(=O)NC1=O | active |
| Nc1nnc(-c2ccc([N+](=O)[O-])o2)s1 | active |
| C/C=C/C=O | active |
| O=[N+]([O-])c1cc(N(CCO)CCO)ccc1NCCO | inactive |
| CC(=O)N[C@@H](CS)C(=O)O | inactive |
| CC[C@H]1OC(=O)C[C@@H](O)[C@H](C)[C@@H](O[C@@H]2O[C@H](C)[C@@H](O[C@H]3C[C@@](C)(O)[C@@H](O)[C@H](C)O3)[C@H](N(C)C)[C@H]2O)[C@@H](CC=O)C[C@@H](C)C(=O)/C=C/C(C)=C/C1CO[C@@H]1O[C@H](C)[C@@H](O)[C@@H](OC)[C@H]1OC (some centres undefined) | inactive |
| CCCCNC(=O)NS(=O)(=O)c1ccc(C)cc1 | inactive |
| C#C[C@]1(O)CC[C@H]2[C@@H]3CCc4cc(OC)ccc4[C@H]3CC[C@@]21C | inactive |
| c1ccc2sc(SSc3nc4ccccc4s3)nc2c1 | inactive |
| CC(C)(Oc1ccc(C2CC2(Cl)Cl)cc1)C(=O)O (centres undefined) | active |
| Cc1ccccc1S(N)(=O)=O | active |
| O=C(N[C@H](CO)[C@H](O)c1ccc([N+](=O)[O-])cc1)C(Cl)Cl | inactive |
| [Cl-].[Cl-].[Sn+2] | inactive |
| Cc1cc(O)ccc1O | inactive; active |
| Oc1cccc2cccnc12 | inactive |
| N[C@@H](CC(=O)O)C(=O)O | inactive; active |

| Structure (SMILES) | outcome |
| --- | --- |
| O=C1CCCCCN1 | inactive |
| CC(N)=O | active; inactive |
| Nc1c(Cl)cc([N+](=O)[O-])cc1Cl | inactive |
| CC(=O)CN(C)N=O | active |
| C=CC1CC=CCC1 (centres undefined) | active |
| ClC1(Cl)C2(Cl)C3(Cl)C4(Cl)C(Cl)(Cl)C5(Cl)C3(Cl)C1(Cl)C5(Cl)C24Cl (centres undefined) | active; inactive |
| Clc1ccc(Cl)cc1 | active |
| OC[C@@H](O)[C@@H](O)[C@H](O)[C@H](O)CO[C@H]1O[C@H](CO)[C@@H](O)[C@H](O)[C@H]1O | inactive |
| O=CNNc1nc(-c2ccco2)cs1 | inactive |
| COP(=S)(OC)SCn1nnc2ccccc2c1=O | inactive |
| CN(N=O)c1ccc(N=O)cc1 | active |
| O=NN1CCC(O)C1 (centres undefined) | active |
| CCCCOC(=O)COc1ccc(Cl)cc1Cl | inactive |
| O=C(O)CCl | inactive; active |
| c1ccoc1 | active; inactive |
| O=C1CCN([C@@H]2O[C@H](CO)[C@@H](O)[C@H]2O)C(=O)N1 | inactive |
| CS(=O)(=O)OCCCCOS(C)(=O)=O | inactive |
| CCCOC(=O)C1c2cc3c(cc2CC(C)C1C(=O)OCCC)OCO3 (centres undefined) | inactive |
| Cc1c(N(C)C)c(=O)n(-c2ccccc2)n1C | inactive |
| C1CCCNCCC1 | inactive |
| Cn1c(=O)c2[nH]cnc2n(C)c1=O | inactive; active |
| Cc1cccc(OCC(O)CNC(C)(C)C)c1C (centres undefined) | inactive |
| O=P(=O)O | inactive |
| CCOC1=C(O)C(=O)O[C@@H]1[C@@H](O)CO | inactive |
| COP(=S)(OC)Oc1ccc([N+](=O)[O-])cc1 | inactive |
| ClC/C=C/CCl | active; inactive |

| Structure (SMILES) | outcome |
| --- | --- |
| CN[C@H]1CC[C@@H](c2ccc(Cl)c(Cl)c2)c2ccccc21 | inactive |
| O=[N+]([O-])c1ccc(Cl)c([N+](=O)[O-])c1 | inactive |
| Cc1ccccc1N=O | active |
| CC(COc1ccccc1)N(CCCl)Cc1ccccc1 (centres undefined) | active; inactive |
| Nc1ccc(Cc2ccc(N)cc2)cc1 | active; inactive |
| O=[N+]([O-])c1ccc2ccc3cccc4ccc1c2c34 | active |
| O=c1c(O)c(-c2ccc(O)cc2)oc2cc(O)cc(O)c12 | inactive |
| O=C1c2ccccc2C(=O)c2ccccc21 | inactive |
| CN(CC(O)CO)N=O (centres undefined) | active |
| CCCCC(CC)COC(=O)CCCCC(=O)OCC(CC)CCCC (centres undefined) | active |
| C=CCN(N)CC=C | active |
| OC[C@@H](O)[C@@H](O)[C@H](O)[C@H](O)CO | inactive |
| ClC1=C(Cl)C(Cl)(Cl)C(Cl)=C1Cl | inactive; active |
| CN(C)NC(=O)CCC(=O)O | active |
| O=NN1CCSCC1 | active |
| C=CC=C | active; inactive |
| CN1C2CC[C@@H]1CC(NC(=O)c1cc(Cl)cc3c1OC(C)(C)C3)C2 (some centres undefined) | inactive |
| FC(F)(Cl)C(F)(Cl)Cl | inactive; active |
| Cc1cc(C)nc(NS(=O)(=O)c2ccc(N)cc2)n1 | active |
| C/C1=C\C=C(\C(C)C)[C@@H](O)C/C(C)=C/CC/C(C)=C/CC1 | inactive |
| [Cl-].[Cl-].[Hg+2] | active |
| ClCc1ccccc1 | active |
| NS(=O)(=O)c1cc(C(=O)O)c(NCc2ccco2)cc1Cl | active; inactive |
| Cc1ccc(NC(N)=O)cc1 | active |
| Cc1ccc2c(c1)C(N1CCN(C)CC1)=Nc1ccccc1S2 | inactive |
